Source: article PMC9039177 (Frontiers in Chemistry, 2022)
Converted amounts (≈) assume the structure as drawn. “And” between values parts separate entries of the source, which are not always exact repeats. Equal values may be shown once. “Also recorded” adds a separate entry of the source. Where a name gives a salt, the structure may show the parent alone. Read-outs that look alike come from different tables or passages of the source.

What was measured:
SARS-CoV-2 PLpro [1] = target: T1, SARS-CoV-2 PLpro (Severe acute respiratory syndrome coronavirus 2, UniProt P0DTD1); experiment: biochemical
MERS-CoV PLpro [2] = target: T2, MERS-CoV PLpro (Middle East respiratory syndrome-related coronavirus, UniProt K9N7C7); experiment: biochemical
MERS-CoV PLpro [3] = target: T2, MERS-CoV PLpro; experiment: biochemical; type: binding
in vitro [4] = details: mouse, microsomes, pH 7.4
SARS-CoV PLpro [5] = target: T3, SARS-CoV PLpro (Severe acute respiratory syndrome coronavirus, UniProt P0C6X7); experiment: biochemical; type: binding
SARS-CoV PLpro [6] = target: T3, SARS-CoV PLpro; experiment: biochemical
SARS-CoV-2 PLpro [7] = target: T1, SARS-CoV-2 PLpro; experiment: biochemical; type: binding
SARS-CoV-2 [8] = type: cell-based
physchem = details: kinetic from dmso stock
in vitro [9] = details: human, microsomes, pH 7.4
in vitro [10] = details: human, Caco-2, pH 7.4
[11] = system: human DUBs (panel of 41 enzymes); type: biochemical
SARS-CoV-2 [12] = details: cited from earlier work
human USP21 = human USP21 (Homo sapiens, UniProt Q9UK80); experiment: biochemical
SARS-CoV-2 PLpro [13] = target: T1, SARS-CoV-2 PLpro; details: read-out: IC50 against PLpro; cited from earlier work
Calu-3 cells = details: cited from earlier work

T2 sequence (K9N7C7 1482-1803 limits assumed): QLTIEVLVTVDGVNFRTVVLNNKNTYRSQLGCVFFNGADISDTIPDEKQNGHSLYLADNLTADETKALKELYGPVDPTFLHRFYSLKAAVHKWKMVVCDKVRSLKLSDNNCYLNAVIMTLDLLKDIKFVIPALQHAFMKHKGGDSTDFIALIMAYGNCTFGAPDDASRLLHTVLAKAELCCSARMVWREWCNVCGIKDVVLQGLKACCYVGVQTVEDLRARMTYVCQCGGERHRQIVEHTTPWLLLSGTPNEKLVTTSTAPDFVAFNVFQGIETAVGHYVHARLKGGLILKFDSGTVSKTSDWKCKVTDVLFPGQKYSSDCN
Sequence of human USP21 (Q9UK80 whole entry): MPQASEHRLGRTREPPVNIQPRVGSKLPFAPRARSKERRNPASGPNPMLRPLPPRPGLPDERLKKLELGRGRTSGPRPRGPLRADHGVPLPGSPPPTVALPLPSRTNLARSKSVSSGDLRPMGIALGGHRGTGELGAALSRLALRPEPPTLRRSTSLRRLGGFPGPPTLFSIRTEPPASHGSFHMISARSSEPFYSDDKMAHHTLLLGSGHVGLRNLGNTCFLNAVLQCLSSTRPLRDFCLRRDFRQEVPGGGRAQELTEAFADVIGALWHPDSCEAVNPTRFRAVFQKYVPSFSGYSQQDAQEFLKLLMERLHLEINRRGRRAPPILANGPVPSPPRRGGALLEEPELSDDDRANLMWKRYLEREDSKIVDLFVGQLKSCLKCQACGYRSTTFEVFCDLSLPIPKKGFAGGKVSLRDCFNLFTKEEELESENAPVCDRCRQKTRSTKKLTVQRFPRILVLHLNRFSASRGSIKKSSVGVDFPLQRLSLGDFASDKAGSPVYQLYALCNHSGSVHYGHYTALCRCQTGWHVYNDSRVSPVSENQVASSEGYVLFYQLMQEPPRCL

COc1cc(CNC(=O)C2CCN(C(C)c3cccc(-c4ccccc4)c3)CC2)ccn1 (stereo not drawn) [Compound 1, 1-{1-[(1,1′-biphenyl)-3-yl]ethyl}-N-[(2-methoxypyridin-4-yl)methyl]piperidine-4-carboxamide]
loss of potency relative to parent 5c (SARS-CoV-2 PLpro [1]): 20 fold
IC50 (SARS-CoV-2 PLpro [1]; calculated IC50): 18 µM

COc1cc(CNC(=O)C2CCN(C(C)c3csc4ccccc34)CC2)ccn1 (stereo not drawn) [Compound 2, 1-{1-[benzo(b)thiophen-3-yl]ethyl}-N-[(2-methoxypyridin-4-yl)methyl]piperidine-4-carboxamide formate]
IC50 (SARS-CoV-2 PLpro [1]; calculated IC50): 4.5 µM

COc1cc(CNC(=O)C2CCN(C(C)c3c(C)sc4ccccc34)CC2)ccn1 (stereo not drawn) [Compound 3, N-[(2-methoxypyridin-4-yl)methyl]-1-{1-[2-methylbenzo(b)thiophen-3-yl]ethyl}piperidine-4-carboxamide]
potency against SARS-CoV-2 PLpro in words (SARS-CoV-2 PLpro [1]): completely inactive

C[C@H](c1cccc2ccccc12)N1CCC(C(=O)NCc2cccc(F)c2)CC1 [Compound 3k]
IC50 (MERS-CoV PLpro [2]): > 98 µM
Kd (MERS-CoV PLpro [3]): > 20 µM
Kd (MERS-CoV PLpro [3]; read-out: KD Exp1, MERS-CoV): > 20 µM
Kd (MERS-CoV PLpro [3]; read-out: KD Exp3, MERS-CoV): > 20 µM
half-life (in vitro [4]): 5 min
microsomal CLint (in vitro [4]): 337 µL/min/mg
Kd (SARS-CoV PLpro [5]; KD Exp1, SARS-CoV): 0.662 µM
Kd (SARS-CoV PLpro [5]; KD Exp2, SARS-CoV): 0.795 µM
Kd (SARS-CoV PLpro [5]; KD Exp3, SARS-CoV): 0.686 µM
Kd (SARS-CoV PLpro [5]; KD, SARS-CoV): 0.714 µM and 0.71 µM
IC50 (SARS-CoV PLpro [6]): 0.86 µM
IC50 (SARS-CoV-2 PLpro [1]; IC50, SARS-CoV-2): 1.02 µM
efflux in Caco-2 (Caco-2 cell monolayers): no evidence of efflux
Kd (SARS-CoV-2 PLpro [7]; KD Exp1, SARS-CoV-2 PLpro WT): 2 µM
Kd (SARS-CoV-2 PLpro [7]; KD Exp2, SARS-CoV-2 PLpro WT): 2.35 µM
Kd (SARS-CoV-2 PLpro [7]; KD Exp3, SARS-CoV-2 PLpro WT): 2.85 µM
Kd (SARS-CoV-2 PLpro [7]; KD, SARS-CoV-2): 2.4 ± 0.43 µM
reduction of viral titer (SARS-CoV-2 [8]): 1 log
solubility kinetic (physchem; pH 2, aqueous buffer): > 100 µg/mL
solubility kinetic (physchem; pH 6.5, aqueous buffer): 12.5 to 25 µg/mL (≈ 32 to 64 µM)
Mouse plasma protein binding: 95.3 % bound
half-life (in vitro [9]): 7 min
microsomal CLint (in vitro [9]): 247 µL/min/mg
Papp A→B (in vitro [10]): 35 ×10⁻⁶ cm/s
Papp B→A (in vitro [10]): 36 ×10⁻⁶ cm/s

COc1cc(CNC(=O)C2CCN(C(C)c3cc(Cl)ccc3OC)CC2)ccn1 (stereo not drawn) [Compound 4, 1-(1-(5-chloro-2-methoxyphenyl)ethyl)-N-((2-methoxypyridin-4-yl)methyl)piperidine-4-carboxamide]
IC50 (SARS-CoV-2 PLpro [1]; calculated IC50): 4.6 µM

CCOc1ccc(Cl)cc1C(C)N1CCC(C(=O)NCc2ccnc(OC)c2)CC1 (stereo not drawn) [Compound 5, 1-[1-(5-chloro-2-ethoxyphenyl)ethyl]-N-[(2-methoxypyridin-4-yl)methyl]piperidine-4-carboxamide]
IC50 (SARS-CoV-2 PLpro [1]; calculated IC50): 7.9 µM

COc1cc(CNC(=O)C2CCN([C@H](C)c3cccc4ccccc34)CC2)ccn1 [Compound 5c]
IC50 (MERS-CoV PLpro [2]): > 98 µM
Kd (MERS-CoV PLpro [3]): > 20 µM
Kd (MERS-CoV PLpro [3]; read-out: KD Exp1, MERS-CoV): > 20 µM
Kd (MERS-CoV PLpro [3]; read-out: KD Exp3, MERS-CoV): > 20 µM
half-life (in vitro [4]): 20 min
microsomal CLint (in vitro [4]): 86 µL/min/mg
Kd (SARS-CoV PLpro [5]; KD Exp1, SARS-CoV): 0.833 µM
Kd (SARS-CoV PLpro [5]; KD Exp2, SARS-CoV): 0.88 µM
Kd (SARS-CoV PLpro [5]; KD Exp3, SARS-CoV): 0.853 µM
Kd (SARS-CoV PLpro [5]; KD, SARS-CoV): 0.855 µM and 0.86 µM
IC50 (SARS-CoV PLpro [6]): 0.5 µM
IC50 (SARS-CoV-2 PLpro [1]; IC50, SARS-CoV-2): 0.72 µM
IC50 (SARS-CoV-2 PLpro [1]; calculated IC50): 0.86 µM
efflux in Caco-2 (Caco-2 cell monolayers): no evidence of efflux
inhibition of human DUBs [11]: did not inhibit any of the human DUBs tested; also recorded: does not notably inhibit any of the tested human DUBs
Kd (SARS-CoV-2 PLpro [7]; KD Exp1, SARS-CoV-2 PLpro WT): 4.11 µM
Kd (SARS-CoV-2 PLpro [7]; KD Exp2, SARS-CoV-2 PLpro WT): 2.45 µM
Kd (SARS-CoV-2 PLpro [7]; KD Exp3, SARS-CoV-2 PLpro WT): 2.6 µM
Kd (SARS-CoV-2 PLpro [7]; KD, SARS-CoV-2): 3.05 ± 0.92 µM
reduction of viral titer (SARS-CoV-2 [8]): 1 log
solubility kinetic (physchem; pH 2, aqueous buffer): > 100 µg/mL
solubility kinetic (physchem; pH 6.5, aqueous buffer): 50 to 100 µg/mL (≈ 124 to 248 µM)
Mouse plasma protein binding: 86.3 % bound
half-life (in vitro [9]): 16 min
microsomal CLint (in vitro [9]): 110 µL/min/mg
Papp A→B (in vitro [10]): 53 ×10⁻⁶ cm/s
Papp B→A (in vitro [10]): 55 ×10⁻⁶ cm/s

COc1cc(CNC(=O)C2CCN(C(C)c3c(OC)ccc4ccccc34)CC2)ccn1.O=CO (stereo not drawn) [Compound 6, 1-[1-(2-methoxynaphthalen-1-yl)ethyl]-N-[(2-methoxypyridin-4-yl)methyl]piperidine-4-carboxamide formate]
potency against SARS-CoV-2 PLpro in words (SARS-CoV-2 PLpro [1]): not tolerated

CCOc1ccc2ccccc2c1C(C)N1CCC(C(=O)NCc2ccnc(OC)c2)CC1 (stereo not drawn) [Compound 7, 1-[1-(2-ethoxynaphthalen-1-yl)ethyl]-N-[(2-methoxypyridin-4-yl)methyl]piperidine-4-carboxamide]
potency against SARS-CoV-2 PLpro in words (SARS-CoV-2 PLpro [1]): not tolerated

COc1cc(CNC(=O)C2CCN(C(C)c3ccc(F)c4ccccc34)CC2)ccn1 (stereo not drawn) [Compound 8, 1-[1-(4-fluoronaphthalen-1-yl)ethyl]-N-[(2-methoxypyridin-4-yl)methyl]piperidine-4-carboxamide]
loss of potency relative to parent 5c (SARS-CoV-2 PLpro [1]): 3 fold
IC50 (SARS-CoV-2 PLpro [1]; calculated IC50): 2.2 µM

COc1cc(CNC(=O)C2CCN(C(C)c3ccc(OC)c4ccccc34)CC2)ccn1 (stereo not drawn) [Compound 9, 1-[1-(4-methoxynaphthalen-1-yl)ethyl]-N-[(2-methoxypyridin-4-yl)methyl]piperidine-4-carboxamide]
IC50 (MERS-CoV PLpro [2]): > 98 µM
Kd (MERS-CoV PLpro [3]): > 20 µM
Kd (MERS-CoV PLpro [3]; read-out: KD Exp1, MERS-CoV): > 20 µM
Kd (MERS-CoV PLpro [3]; read-out: KD Exp3, MERS-CoV): > 20 µM
half-life (in vitro [4]): 35 min
microsomal CLint (in vitro [4]): 50 µL/min/mg
Kd (SARS-CoV PLpro [5]; KD Exp1, SARS-CoV): 0.805 µM
Kd (SARS-CoV PLpro [5]; KD Exp2, SARS-CoV): 0.8 µM
Kd (SARS-CoV PLpro [5]; KD Exp3, SARS-CoV): 0.84 µM
Kd (SARS-CoV PLpro [5]; KD, SARS-CoV): 0.815 µM and 0.82 µM
IC50 (SARS-CoV PLpro [6]): 0.7 µM
IC50 (SARS-CoV-2 PLpro [1]; IC50, SARS-CoV-2): 0.76 µM
efflux in Caco-2 (Caco-2 cell monolayers): no evidence of efflux
Kd (SARS-CoV-2 PLpro [7]; KD Exp1, SARS-CoV-2 PLpro WT): 1.42 µM
Kd (SARS-CoV-2 PLpro [7]; KD Exp2, SARS-CoV-2 PLpro WT): 1.82 µM
Kd (SARS-CoV-2 PLpro [7]; KD Exp3, SARS-CoV-2 PLpro WT): 2.34 µM
Kd (SARS-CoV-2 PLpro [7]; KD, SARS-CoV-2): 1.86 ± 0.46 µM
reduction of viral titer (SARS-CoV-2 [8]): 1 log
viral titer (SARS-CoV-2 [8]): below the limit of detection
solubility kinetic (physchem; pH 2, aqueous buffer): > 140 µg/mL
solubility kinetic (physchem; pH 6.5, aqueous buffer): 70 to 140 µg/mL (≈ 161 to 323 µM)
Mouse plasma protein binding: 90.1 % bound
half-life (in vitro [9]): 39 min
microsomal CLint (in vitro [9]): 45 µL/min/mg
Papp A→B (in vitro [10]): 46 ×10⁻⁶ cm/s
Papp B→A (in vitro [10]): 46 ×10⁻⁶ cm/s

COc1cc(C(=O)NCC2CCN([C@H](C)c3cccc4ccccc34)CC2)ccn1 [Compound 10, (R)-2-methoxy-N-((1-(1-(naphthalen-1-yl)ethyl)piperidin-4-yl)methyl)isonicotinamide]
loss of potency relative to parent 5c (SARS-CoV-2 PLpro [1]): 4 fold
IC50 (SARS-CoV-2 PLpro [1]; calculated IC50): 3.4 µM

COc1cc(CNCC2CCN([C@H](C)c3cccc4ccccc34)CC2)ccn1.O=CO [Compound 11, (R)-1-(2-methoxypyridin-4-yl)-N-((1-(1-(naphthalen-1-yl)ethyl)piperidin-4-yl)methyl)methanamine formate]
loss of potency relative to parent 5c (SARS-CoV-2 PLpro [1]): 7 fold
IC50 (SARS-CoV-2 PLpro [1]; calculated IC50): 5.7 µM

CNC(=O)C1CCN([C@H](C)c2cccc3ccccc23)CC1 [Compound 12, (R)-N-methyl-1-(1-(naphthalen-1-yl)ethyl)piperidine-4-carboxamide]
loss of potency relative to parent 5c (SARS-CoV-2 PLpro [1]): 4 fold
IC50 (SARS-CoV-2 PLpro [1]; calculated IC50): 3.1 µM

C[C@H](c1cccc2ccccc12)N1CCC(C(=O)NCc2ccn(C)c(=O)c2)CC1 [Compound 13, (R)-N-[(1-methyl-2-oxo-1,2-dihydropyridin-4-yl)methyl]-1-[1-(naphthalen-1-yl)ethyl]piperidine-4-carboxamide]
IC50 (SARS-CoV-2 PLpro [1]; calculated IC50): 0.69 µM

Cc1ncc(CNC(=O)C2CCN([C@H](C)c3cccc4ccccc34)CC2)s1 [Compound 14, (R)-N-[(2-methylthiazol-5-yl)methyl]-1-(1-(naphthalen-1-yl)ethyl)piperidine-4-carboxamide]
IC50 (SARS-CoV-2 PLpro [1]; calculated IC50): 0.71 µM

C[C@H](c1cccc2ccccc12)N1CCC(C(=O)NCc2cccnc2)CC1 [Compound 15, (R)-1-(1-(naphthalen-1-yl)ethyl)-N-(pyridin-3-ylmethyl)piperidine-4-carboxamide]
IC50 (SARS-CoV-2 PLpro [1]; calculated IC50): 0.82 µM

C[C@H](c1cccc2ccccc12)N1CCC(C(=O)NCc2ccc(S(N)(=O)=O)cc2)CC1 [Compound 16, (R)-1-(1-(naphthalen-1-yl)ethyl)-N-(4-sulfamoylbenzyl)piperidine-4-carboxamide formate]
IC50 (SARS-CoV-2 PLpro [1]; calculated IC50): 0.59 µM

C[C@H](c1cccc2ccccc12)N1CCC(C(=O)NCC2CCOCC2)CC1 [Compound 17, (R)-1-(1-(naphthalen-1-yl)ethyl)-N-((tetrahydro-2H-pyran-4-yl)methyl)piperidine-4-carboxamide]
IC50 (SARS-CoV-2 PLpro [1]; calculated IC50): 1.3 µM

CC(c1cccc2ccccc12)N1CCC(C(=O)NCc2cccc(F)c2)CC1 (stereo not drawn) [rac3k]
IC50 (SARS-CoV-2 PLpro [1]; PLpro IC50): 1.5 µM
decrease of SARS-CoV-2 viral titers (TCID50) (SARS-CoV-2 [12]): 2-3 orders of magnitude
IC50 (human USP21): > 98 µM
IC50 (SARS-CoV-2 PLpro [13]): 0.6 to 0.8 µM

COc1cc(CNC(=O)C2CCN(C(C)c3cccc4ccccc34)CC2)ccn1 (stereo not drawn) [rac5c]
IC50 (SARS-CoV-2 PLpro [1]; PLpro IC50): 0.79 µM
decrease of SARS-CoV-2 viral titers (TCID50) (SARS-CoV-2 [12]): 2-3 orders of magnitude
IC50 (human USP21): > 98 µM
IC50 (SARS-CoV-2 PLpro [13]): 0.6 to 0.8 µM
cytotoxicity, no evidence up to (Calu-3 cells): > 33 µM
